Results as given in patent publication US20110071142A1, “IDENTIFICATION AND USE OF SMALL MOLECULES TO MODULATE TRANSCRIPTION FACTOR FUNCTION AND TO TREAT TRANSCRIPTION FACTOR ASSOCIATED DISEASES” (BETH ISRAEL DEACONESS MEDICAL CENTER, priority 2007, published 2011).
Where two headings read alike, the source gives them in different places.

Legend:
Ets-1-DNA interaction = molecular target: T1, Ets-1-DNA interaction (Homo sapiens, UniProt P14921); test: Electrophoretic mobility shift assay (EMSA) of Ets-1 DNA binding
T1 construct: host or cells: cell-free in vitro translation, rabbit reticulocyte lysate
T1 sequence (P14921 1-441): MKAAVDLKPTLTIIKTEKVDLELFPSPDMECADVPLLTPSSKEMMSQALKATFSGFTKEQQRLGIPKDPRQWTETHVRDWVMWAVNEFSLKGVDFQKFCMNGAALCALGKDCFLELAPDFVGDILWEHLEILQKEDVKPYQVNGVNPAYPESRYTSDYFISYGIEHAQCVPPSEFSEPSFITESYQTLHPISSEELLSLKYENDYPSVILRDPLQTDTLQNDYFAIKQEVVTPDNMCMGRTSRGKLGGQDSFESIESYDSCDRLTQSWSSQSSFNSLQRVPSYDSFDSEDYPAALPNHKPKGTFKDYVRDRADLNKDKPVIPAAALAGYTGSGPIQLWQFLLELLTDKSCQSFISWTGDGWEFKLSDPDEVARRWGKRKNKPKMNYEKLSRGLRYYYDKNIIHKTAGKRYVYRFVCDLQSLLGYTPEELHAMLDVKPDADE
Procedure: Initially it is determined whether the identified small molecule “hits” interfere with Ets-1-DNA binding using electrophoretic mobility shift assays (EMSAs). These are performed as described previously (142). In brief, in vitro translated Ets-1 protein is generated using a rabbit reticulolysate system (Promega) and a mammalian expression plasmid encoding the Ets-1 protein. 1 μl of the in vitro translation reaction and 0.1-0.2
ng [32P]dATP-labeled double-stranded oligonucleotide probe (5,000-10,000 cpm) will be run on 4% polyacrylamide gels containing 0.5×TBE buffer. […] The small molecules identified are initially evaluated at a concentration of 1 mM, which is the concentration used in high throughput fraganomic approaches for evaluating the interaction of weak-binding small molecules (143, 144). Those small molecules that inhibit the Ets-1-DNA interaction will be re-evaluated over a concentration range of 10 μM-1 mM. Solutions containing DMSO alone will be used as a vehicle control. To ensure the small molecule is specifically targeting the Ets-1-DNA interface and not interacting non-specifically with the DNA, a non-specific promoter is included as well as a control small molecule that is not selected as a “hit” by our HTD screen. To further confirm the molecular specificity of these small molecules for targeting Ets-1, EMSAs will be performed with other members of the ETS family. Ethidium bromide displacement assays could also be used to confirm that the small molecules are not nonspecifically targeting the DNA sequence (145).

Ets-1 expression = test: Real time PCR of IL-1 induced Ets-1 expression in HUVECs; assay type: cell-based, Human; conditions: 10 μM, preincubated 1 h, IL-1 10 ng/ml, 2 hr
Procedure: (§1) SYBR Green I-based real-time PCR is carried out on an Opticon Monitor (MJ Research, Inc, Waltham, Mass.). All PCR mixtures contain PCR buffer [final concentration: 10 mM Tris-HCl (pH9.0), 50 mM KCl, 2 mM MgCl2 and 0.1% TritonX-100], 250 μM deoxy-NTP (Roche), 0.5 μM of each PCR primer, 0.5×SYBR Green I,
(§2) 5% DMSO, and 1U Taq DNA polymerase (Promega, Madison, Wis.) with 2 μl cDNA in a 25 μl final volume of reaction mix. Then, the fluorescence signal is measured immediately following incubation at 78° C. for 5 s that follows each extension step, which eliminates possible primer dimer detection. At the end of PCR cycles, a melting curve will be generated to identify specificity of the PCR product. For each run, serial dilutions of human GAPDH plasmids are used as standards for quantitative measurement of the amount of amplified cDNA. For normalization of each sample, GAPDH primers are used to measure the GAPDH cDNA levels. Cytotoxicity Evaluation of “hit” Compounds Using MTS Assay
(§3) Total RNA was isolated for real time PCR to measure Ets-1 expression levels as well as the IL-1 inducible, Ets-1
(§4) dependent MCP-1 expression levels, following stimulation for 1, 2, 4, 6 and 12 hours. IL-1 induced Ets-1 expression ˜4 fold at 2 hr, however compound #28 reduced Ets-1 induction by greater than 50% during this time frame. […]

MCP-1 expression = test: Real time PCR of IL-1 inducible, Ets-1 dependent MCP-1 expression in HUVECs; assay type: cell-based, Human; conditions: 10 μM, preincubated 1 h, IL-1 10 ng/ml
Procedure: as §1, §2, §3, §4

[1] = system: Ets-1 mediated gene expression; test: Ets-1 mediated gene expression in HEK293 cells; assay type: cell-based, Human
Ets-1 transactivation = test: Reporter gene transactivation assays (transient transfection); assay type: cell-based, Human
Procedure: Several downstream targets of Ets-1 including the MCP-1 gene, PAI1, and Flt-1 (49, 142) have been identified. To further define the specificity of small molecules that inhibit DNA binding of Ets-1 in EMSAs, their ability is evaluated with regard to inhibiting transactivation of the MCP-1, PAI-1, and Flt-1 promoters by Ets-1, without affecting the basal activity of the promoter. As controls, the endothelial-specific promoters Tie1 and Tie2 are used, that have been previously shown as targets of the Ets factors NERF2 and Elf-1, but not Ets-1 or Ets-2 (142, 146). The promoters of these genes have previously been subcloned into the PGL2 luciferase reporter (Promega). Similarly, we have previously subcloned the
cDNAs encoding the ETS factors Ets-1, Ets-2, NERF2, and Elf-1 into the PCI mammalian expression plasmid.
Human embryonic kidney cells (HEK 293) are cultured as previously described (147). HEK 293 cells are kidney epithelial cells that express low basal levels of Ets-1, and are easily transfected. Cotransfections of 2×10^5 HEK 293 cells are carried out with 0.3 μg of the reporter gene construct DNA and 0.15 μg of the mammalian expression vector encoding the selected Ets factors using 4 μl LipofectAMINE (Invitrogen, San Diego, Calif.) as described (148). […]

Compound: Nc1ccccc1SC(C[N+](=O)[O-])c1ccc2c(c1)OCO2 (stereo not shown) [Compound 28, 2-{[1-(1,3-benzodioxol-5-yl)-2-nitroethyl]thio}aniline]
- inhibition of Ets-1 DNA binding (Ets-1-DNA interaction): inhibits Ets-1 DNA binding
- inhibits the Ets-1-DNA interaction, concentration range as estimated using EMSAs (Ets-1-DNA interaction): low uM range
- inhibition of Ets-1 DNA binding (Ets-1-DNA interaction; FIG. 8 legend: HUVECs preincubated with 10 μM): inhibits Ets-1 DNA binding
- reduction of IL-1 induced Ets-1 induction (Ets-1 expression): greater than 50%
- reduction of IL-1 induced MCP-1 expression (MCP-1 expression): greater than 40%
- decrease of Ets-1 mediated gene expression [1]: 50-60%
- inhibition of transactivation assays (Ets-1 transactivation): 8 fold
